Laboratory results as given in PubChem BioAssay AID192 (DTP/NCI, 2004).
Where “and” joins values, the source holds several entries; their conditions need not be identical. Equal entries are not always repeated. Inconclusive results and toxic doses are left out.

System: BDF1 mice, B16 melanoma ip, median survival T/C
Assay: NCI In Vivo Anticancer Drug Screen. Data for tumor model B16 Melanoma (intraperitoneal) in B6D2F1 (BDF1) mice
Settings: endpoint: median survival time, higher = longer survival
Outline: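 Read-out: survival or tumor size, given as treated/control ratio. Controls received vehicle only; animals bore transplantable tumors.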

[1] = dose: 100.0 mg/kg/injection, schedule: Q01DX009 (ip), vehicle: Klucel (hydroxypropylcellulose) (HPC)
[2] = dose: 200.0 mg/kg/injection, schedule: Q01DX009 (ip), vehicle: Klucel (hydroxypropylcellulose) (HPC)
[3] = dose: 400.0 mg/kg/injection, schedule: Q01DX009 (ip), vehicle: Klucel (hydroxypropylcellulose) (HPC)
[4] = dose: 100.0 mg/kg/injection, schedule: Q04DX003 (ip), vehicle: Klucel (hydroxypropylcellulose) (HPC)
[5] = dose: 50.0 mg/kg/injection, schedule: Q01DX009 (ip), vehicle: saline
[6] = dose: 100.0 mg/kg/injection, schedule: Q01DX009 (ip), vehicle: saline
[7] = dose: 6.25 mg/kg/injection, schedule: Q01DX009 (ip), vehicle: saline
[8] = dose: 12.5 mg/kg/injection, schedule: Q01DX009 (ip), vehicle: Klucel (hydroxypropylcellulose) (HPC)
[9] = dose: 25.0 mg/kg/injection, schedule: Q01DX009 (ip), vehicle: Klucel (hydroxypropylcellulose) (HPC)
[10] = dose: 50.0 mg/kg/injection, schedule: Q01DX009 (ip), vehicle: Klucel (hydroxypropylcellulose) (HPC)
[11] = dose: 6.25 mg/kg/injection, schedule: Q01DX009 (ip), vehicle: Klucel (hydroxypropylcellulose) (HPC)
[12] = dose: 6.25 mg/kg/injection, schedule: Q01DX009 (ip), vehicle: saline with Tween-80
[13] = dose: 12.5 mg/kg/injection, schedule: Q01DX009 (ip), vehicle: saline with Tween-80
[14] = dose: 25.0 mg/kg/injection, schedule: Q01DX009 (ip), vehicle: saline with Tween-80
[15] = dose: 12.5 mg/kg/injection, schedule: Q01DX009 (ip), vehicle: saline
[16] = dose: 25.0 mg/kg/injection, schedule: Q01DX009 (ip), vehicle: saline
[17] = dose: 50.0 mg/kg/injection, schedule: Q01DX009 (ip), vehicle: saline with Tween-80
[18] = dose: 100.0 mg/kg/injection, schedule: Q01DX009 (ip), vehicle: saline with Tween-80
[19] = dose: 200.0 mg/kg/injection, schedule: Q01DX009 (ip), vehicle: saline with Tween-80

Cc1ccc(NC(=O)c2ccccc2)cc1[As]=[As]c1cc(NC(=O)c2ccccc2)ccc1C (stereo not given)
T/C (dose: 0.04 mg/kg/injection, schedule: Q01DX009 (ip), vehicle: saline with Tween-80): 107 % of control
T/C (dose: 0.08 mg/kg/injection, schedule: Q01DX009 (ip), vehicle: saline with Tween-80): 102 % of control
T/C (dose: 0.08 mg/kg/injection, schedule: Q04DX003 (ip), vehicle: saline): 101 % of control
T/C (dose: 0.15 mg/kg/injection, schedule: Q01DX009 (ip), vehicle: saline with Tween-80): 104 % of control
T/C (dose: 0.15 mg/kg/injection, schedule: Q04DX003 (ip), vehicle: saline): 91 % of control
T/C (dose: 0.16 mg/kg/injection, schedule: Q04DX003 (ip), vehicle: Klucel (hydroxypropylcellulose) (HPC)): 101 % of control
T/C (dose: 0.3 mg/kg/injection, schedule: Q01DX009 (ip), vehicle: saline with Tween-80): 100 % of control
T/C (dose: 0.3 mg/kg/injection, schedule: Q04DX003 (ip), vehicle: saline): 92 % of control
T/C (dose: 0.31 mg/kg/injection, schedule: Q04DX003 (ip), vehicle: Klucel (hydroxypropylcellulose) (HPC)): 98 % of control
T/C (dose: 0.6 mg/kg/injection, schedule: Q04DX003 (ip), vehicle: saline): 91 % of control
T/C (dose: 0.63 mg/kg/injection, schedule: Q04DX003 (ip), vehicle: saline with Tween-80): 89 % of control
T/C (dose: 2.5 mg/kg/injection, schedule: Q04DX003 (ip), vehicle: saline with Tween-80): 161 % of control
T/C (dose: 5.0 mg/kg/injection, schedule: Q04DX003 (ip), vehicle: saline with Tween-80): 105 % of control

Cc1ccc(N=C(c2ccc([N+](=O)[O-])cc2)c2ccc([N+](=O)[O-])cc2)cc1
T/C [1]: 111 % of control
T/C [2]: 97 % of control
T/C [3]: 91 % of control

CCC[CH2][Hg][Cl]
T/C (dose: 0.75 mg/kg/injection, schedule: Q01DX009 (ip), vehicle: saline with Tween-80): 91 % of control
T/C (dose: 1.5 mg/kg/injection, schedule: Q01DX009 (ip), vehicle: saline with Tween-80): 92 % of control

CC12C=CC(=O)C=C1CCC1C2C(O)CC2(C)C1CCC2(O)C(=O)COC(=O)CCCc1ccc(N(CCCl)CCCl)cc1 (stereo not given)
T/C (dose: 15.0 mg/kg/injection, schedule: Q01DX011 (ip), vehicle: saline): 119 % of control

NC(=O)C1(N2CCCC2)CCN(Cc2ccccc2)CC1
T/C (dose: 25.0 mg/kg/injection, schedule: Q04DX003 (ip), vehicle: Klucel (hydroxypropylcellulose) (HPC)): 105 % of control
T/C (dose: 50.0 mg/kg/injection, schedule: Q04DX003 (ip), vehicle: Klucel (hydroxypropylcellulose) (HPC)): 94 % of control
T/C [4]: 100 % of control

COc1cc2c(cc1OC)[C@H]1CNC[C@H]1[C@@H](c1ccccc1)C2
T/C [5]: 123 % of control
T/C [6]: 114 % of control

COc1ccc(NC(=O)COc2ccc(Cl)cc2)cc1
T/C [1]: 90 % of control
T/C [2]: 100 % of control
T/C [3]: 86 % of control

CCOC(=O)C(NC(=O)C(Cc1ccc(N(CCCl)CCCl)cc1)NC(C)=O)C(C)C (stereo not given)
T/C (dose: 1.56 mg/kg/injection, schedule: Q01DX009 (ip), vehicle: saline): 99 % of control
T/C (dose: 3.13 mg/kg/injection, schedule: Q01DX009 (ip), vehicle: saline): 98 % of control
T/C [7]: 102 % of control
T/C (dose: 12.5 mg/kg/injection, schedule: Q04DX003 (ip), vehicle: saline): 105 % of control
T/C (dose: 25.0 mg/kg/injection, schedule: Q04DX003 (ip), vehicle: saline): 97 % of control
T/C (dose: 50.0 mg/kg/injection, schedule: Q04DX003 (ip), vehicle: saline): 102 % of control

CCOC(=O)CNC(=O)Sc1ccc(C(C)(C)C)cc1
T/C [8]: 97 % of control
T/C [9]: 101 % of control
T/C [10]: 104 % of control
T/C [1]: 106 % of control
T/C [2]: 106 % of control
T/C [3]: 120 % of control

CC(C)NNC(=O)c1ccc(Cl)cc1
T/C [11]: 89 % of control
T/C [8]: 92 % of control
T/C [9]: 89 % of control
T/C [10]: 94 % of control
T/C [1]: 107 % of control

Fc1cccc(/C=C2/c3cc(Cl)ccc3-c3c(Cl)cc(Cl)cc32)c1
T/C [12]: 90 % of control
T/C [13]: 93 % of control
T/C [14]: 88 % of control

OCC1OC(n2nnc3cc[nH]c(=S)c32)C(O)C1O (stereo not given)
T/C (dose: 3.13 mg/kg/injection, schedule: Q01DX009 (ip), vehicle: water): 97 % of control
T/C (dose: 6.25 mg/kg/injection, schedule: Q01DX009 (ip), vehicle: water): 113 % of control
T/C (dose: 12.5 mg/kg/injection, schedule: Q01DX009 (ip), vehicle: water): 101 % of control
T/C (dose: 25.0 mg/kg/injection, schedule: Q01DX009 (ip), vehicle: water): 101 % of control

C(CSC1=NCCN1)CSC1=NCCN1
T/C [7]: 97 % of control and 102 % of control
T/C [15]: 98 % of control and 107 % of control
T/C [16]: 105 % of control and 107 % of control
T/C [5]: 96 % of control and 117 % of control
T/C [6]: 101 % of control and 112 % of control
T/C (dose: 200.0 mg/kg/injection, schedule: Q01DX009 (ip), vehicle: saline): 107 % of control

CCc1cc2c(cc1C(=O)CBr)C(C)(C)CCC2(C)C
T/C (dose: 3.13 mg/kg/injection, schedule: Q01DX009 (ip), vehicle: saline with Tween-80): 100 % of control
T/C [12]: 94 % of control
T/C [13]: 92 % of control and 99 % of control
T/C [14]: 94 % of control

Cc1ccc(SSc2ccc(C)cc2[N+](=O)[O-])c([N+](=O)[O-])c1
T/C [9]: 100 % of control
T/C [10]: 89 % of control
T/C [1]: 86 % of control and 93 % of control

CCN(CC)CCOC(=O)c1ccc(NC(=O)Nc2ccc(C(=O)OCCN(CC)CC)cc2)cc1
T/C [7]: 95 % of control
T/C [15]: 88 % of control
T/C [14]: 97 % of control
T/C [16]: 102 % of control
T/C [17]: 110 % of control
T/C [18]: 108 % of control

COc1ccc(NC(=O)c2cccc(C(=O)Nc3ccc(OC)cc3)c2)cc1
T/C [1]: 102 % of control
T/C [2]: 108 % of control
T/C [3]: 102 % of control

CC1(C)OC2C(COC(=O)c3ccc([N+](=O)[O-])cc3)OC(NC(=O)N(CCCl)N=O)C2O1 (stereo not given)
T/C [12]: 158 % of control
T/C [13]: 215 % of control
T/C [14]: 204 % of control and 283 % of control
T/C [17]: 206 % of control

NC(=S)N/N=C\c1ncnc2ccccc12
T/C [11]: 124 % of control

CCO/C=C1\SC(=S)N(c2cccc(C)c2)C1=O
T/C [8]: 94 % of control
T/C [9]: 97 % of control
T/C [10]: 100 % of control
T/C [1]: 87 % of control
T/C [4]: 100 % of control
T/C (dose: 200.0 mg/kg/injection, schedule: Q04DX003 (ip), vehicle: Klucel (hydroxypropylcellulose) (HPC)): 89 % of control
T/C (dose: 400.0 mg/kg/injection, schedule: Q04DX003 (ip), vehicle: Klucel (hydroxypropylcellulose) (HPC)): 92 % of control

COc1cccc2c1C(=O)c1c(O)c3c(c(O)c1C2=O)C[C@@](O)(C(=O)CO)C[C@@H]3OC1CC([N+](C)(C)C)C(O)C(C)O1 (stereo not given in full)
T/C (dose: 4.32 mg/kg/injection, schedule: Q04DX003 (ip), vehicle: water): 108 % of control and 110 % of control
T/C (dose: 6.48 mg/kg/injection, schedule: Q01DX001 (ip), vehicle: water): 107 % of control and 119 % of control
T/C (dose: 7.2 mg/kg/injection, schedule: Q04DX003 (ip), vehicle: water): 116 % of control and 119 % of control
T/C (dose: 10.8 mg/kg/injection, schedule: Q01DX001 (ip), vehicle: water): 103 % of control and 123 % of control
T/C (dose: 12.0 mg/kg/injection, schedule: Q04DX003 (ip), vehicle: water): 108 % of control and 112 % of control
T/C (dose: 18.0 mg/kg/injection, schedule: Q01DX001 (ip), vehicle: water): 105 % of control
T/C (dose: 20.0 mg/kg/injection, schedule: Q04DX003 (ip), vehicle: water): 107 % of control
T/C (dose: 30.0 mg/kg/injection, schedule: Q01DX001 (ip), vehicle: water): 102 % of control and 113 % of control

O=S1(=O)CC2(N3CCOCC3)CCCCC21 (stereo not given)
T/C [18]: 102 % of control
T/C [19]: 104 % of control

Nc1ccc(S(=O)(=O)c2ccc(N)cc2)cc1
T/C [13]: 107 % of control
T/C [14]: 97 % of control and 102 % of control
T/C [17]: 90 % of control and 94 % of control
T/C [18]: 93 % of control and 95 % of control
T/C [19]: 94 % of control
